This passage reports EC50 results from patent publication US20250340510A1, “Substituted Phenylbenzenesulfonamide Derivatives and Uses Thereof” (Nine Square Therapeutics Corporation, priority 2022, published 2025).

In this test the target is TRPML1 (Homo sapiens, UniProt Q9GZU1). The test is described as follows: Calcium flux in HEK293 overexpressing TRPML1 plasma membrane variant (FLIPR, Calcium 6 dye). Type of test: cell-based. The conditions noted are these: HEK293/TRPML1-PM clone A5 cells; 4-parameter logistic fit; read-out: TRPML1 calcium flux (FLIPR) dose response: EC50. The text has this:
Example B1. Calcium Flux in HEK293 Overexpressing TRPML1 Plasma Membrane Variant—Calcium 6 Dye
Cells: HEK293/TRPML1-PM clone A5, clonal cell line containing mutant TRPML1 (both N- and C-terminal dileucine targeting motifs deleted) that localizes to the plasma membrane
Plates: Perkin Elmer Viewplate cat. #6007460, black optically clear, tissue culture treated 384-well plate
Calcium dye: Molecular Devices FLIPR Calcium 6 Assay Kit, cat. #R8190 or Fluo-4 Direct from Thermo Fisher, cat. #F10471
Tips: Molecular Devices 384-well FLIPR Tetra black tips, cat. #9000-0764 Example B1.2 Method
HEK293/TRPML1-PM clone A5 cells were trypsinized from flasks, counted, then diluted in media to 15,000 cells per 25 μL, and seeded into a black, 384-well viewplate, and cultured overnight.
One vial of calcium 6 dye was diluted with 10 mL of assay buffer (HBSS+20 mM HEPES pH 7.4) and 25 μL of the dilution was added per well to the cells.
After incubating for 2 hours at 37° C., the plate was moved to the FLIPR in the read position.
The compounds were diluted in EMEM with 0.125% FBS to 5× concentration and loaded in a 384-well plate according to the desired plate map for the assay, including DMSO alone and carbachol controls, then the plate was moved to the FLIPR in the source 2 position.
A box of tips was placed in the source 1 position within the FLIPR to complete the assay set up.
Once the run was started, an initial baseline fluorescent measurement was performed for 10 seconds (470-495 nm excitation and 515-575 nm emission) prior to adding the compounds.
12.5 μL of 5× test compound, DMSO alone, or carbachol were added via the FLIPR and real-time fluorescence measurements were performed for an additional 170 seconds with 1 read per second.
The data was normalized to baseline by calculating maximum fluorescence minus minimum fluorescence and plotted as response (fold) over the baseline versus log ([…] concentration). The EC50 was determined using a 4-parameter logistic curve fit in Graphpad Prism 9.
(A change in cytosolic calcium serves as a functional read-out for many receptors and channels.)

Structures are written as SMILES.

TRPML1, sequence (Q9GZU1 17-572 limits assumed): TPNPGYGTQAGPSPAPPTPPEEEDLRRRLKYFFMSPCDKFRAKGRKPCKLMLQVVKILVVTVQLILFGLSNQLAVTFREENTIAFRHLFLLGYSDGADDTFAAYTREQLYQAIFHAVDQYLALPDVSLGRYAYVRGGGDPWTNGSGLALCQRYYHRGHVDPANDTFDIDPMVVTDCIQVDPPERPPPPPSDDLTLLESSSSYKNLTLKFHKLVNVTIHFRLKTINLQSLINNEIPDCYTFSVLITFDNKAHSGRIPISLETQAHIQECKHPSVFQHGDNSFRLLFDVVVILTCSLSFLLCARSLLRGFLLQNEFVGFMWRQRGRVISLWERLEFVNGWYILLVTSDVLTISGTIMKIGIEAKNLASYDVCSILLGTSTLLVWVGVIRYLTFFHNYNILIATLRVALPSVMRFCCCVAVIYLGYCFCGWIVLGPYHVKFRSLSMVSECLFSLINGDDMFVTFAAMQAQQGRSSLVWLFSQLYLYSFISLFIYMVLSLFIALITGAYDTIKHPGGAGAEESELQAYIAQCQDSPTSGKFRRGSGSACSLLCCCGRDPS

Broadly, the EC50 is the midpoint of the concentration-response curve. As to `CN(c1ccc(Cl)cc1NS(=O)(=O)c1ccc(S(=O)(=O)N(C)C)cc1)C1CCCCC1` [Compound 1, N1-(5-chloro-2-(cyclohexyl(methyl)amino)phenyl)-N4,N4-dimethylbenzene-1,4-disulfonamide], the EC50 stood at 1240 nM.
For the compound `CN(c1cc(Cl)ccc1NS(=O)(=O)c1ccc(S(=O)(=O)N(C)C)cc1)C1CCCCC1` [Compound 2, N1-(4-chloro-2-(cyclohexyl(methyl)amino)phenyl)-N4,N4-dimethylbenzene-1,4-disulfonamide], the EC50 turned out to be 3000 nM.
For the compound `CN(c1cccc(F)c1NS(=O)(=O)c1ccc(S(=O)(=O)N(C)C)cc1)C1CCCCC1` [Compound 3, N1-(2-(cyclohexyl(methyl)amino)-6-fluorophenyl)-N4,N4-dimethylbenzene-1,4-disulfonamide], the EC50 amounted to 4760 nM.
With `CN(c1cc(F)ccc1NS(=O)(=O)c1ccc(S(=O)(=O)N(C)C)cc1)C1CCCCC1` [Compound 4, N1-(2-(cyclohexyl(methyl)amino)-4-fluorophenyl)-N4,N4-dimethylbenzene-1,4-disulfonamide] the figure was 2210 nM; with `CN(Cc1cnn(C2CC2)c1)c1ccccc1NS(=O)(=O)c1ccc(S(=O)(=O)N(C)C)cc1` [Compound 5, N1-(2-(((1-cyclopropyl-1H-pyrazol-4-yl)methyl)(methyl)amino)phenyl)-N4,N4-dimethylbenzene-1,4-disulfonamide], 2460 nM.
With `CC(C)CN(C)c1ccccc1NS(=O)(=O)c1ccc(S(=O)(=O)N(C)C)cc1` [Compound 7, N1-(2-(isobutyl(methyl)amino)phenyl)-N4,N4-dimethylbenzene-1,4-disulfonamide] the figure was 510 nM.
Next, `CN(Cc1ccncc1)c1ccccc1NS(=O)(=O)c1ccc(S(=O)(=O)N(C)C)cc1` [Compound 8, N1,N1-dimethyl-N4-(2-(methyl(pyridin-4-ylmethyl)amino)phenyl) benzene-1,4-disulfonamide]: 3690 nM; `CCN(C)c1ccccc1NS(=O)(=O)c1ccc(S(=O)(=O)N(C)C)cc1` [Compound 9, N1-(2-(ethyl(methyl)amino)phenyl)-N4,N4-dimethylbenzene-1,4-disulfonamide]: 3460 nM; `CN(CC1CCOCC1)c1ccccc1NS(=O)(=O)c1ccc(S(=O)(=O)N(C)C)cc1` [Compound 11, N1,N1-dimethyl-N4-(2-(methyl((tetrahydro-2H-pyran-4-yl)methyl)amino)phenyl)benzene-1,4-disulfonamide]: 2100 nM.
As for `CN(CCN1CCOCC1)c1ccccc1NS(=O)(=O)c1ccc(S(=O)(=O)N(C)C)cc1` [Compound 15, N1,N1-dimethyl-N4-(2-(methyl(2-morpholinoethyl)amino)phenyl) benzene-1,4-disulfonamide], the EC50 is above 10000 nM.
`CCCN(C)c1ccccc1NS(=O)(=O)c1ccc(S(=O)(=O)N(C)C)cc1` [Compound 16, N1,N1-dimethyl-N4-(2-(methyl(propyl)amino)phenyl)benzene-1,4-disulfonamide]: the EC50 worked out at 2370 nM.
With `CN(c1ccccc1NS(=O)(=O)c1ccc(S(=O)(=O)N(C)C)cc1)C1CCOCC1` [Compound 19, N1,N1-dimethyl-N4-(2-(methyl(tetrahydro-2H-pyran-4-yl)amino)phenyl)benzene-1,4-disulfonamide] the figure was 2030 nM; with `CN1CCC(N(C)c2ccccc2NS(=O)(=O)c2ccc(S(=O)(=O)N(C)C)cc2)CC1` [Compound 21, N1,N1-dimethyl-N4-(2-(methyl(1-methylpiperidin-4-yl)amino)phenyl)benzene-1,4-disulfonamide], above 10000 nM; with `CN(c1ccccc1NS(=O)(=O)c1ccc(S(=O)(=O)N(C)C)cc1)C1CCNCC1` [Compound 22, N1,N1-dimethyl-N4-(2-(methyl(piperidin-4-yl)amino)phenyl)benzene-1,4-disulfonamide], above 10000 nM.
Next, `CN(c1ccccc1)c1ccccc1NS(=O)(=O)c1ccc(S(=O)(=O)N(C)C)cc1` [Compound 27, N1,N1-dimethyl-N4-(2-(methyl(phenyl)amino)phenyl)benzene-1,4-disulfonamide]: above 10000 nM; `CC(C)n1cnc(CN(C)c2ccccc2NS(=O)(=O)c2ccc(S(=O)(=O)N(C)C)cc2)c1` [Compound 31, N1-(2-(((1-isopropyl-1H-imidazol-4-yl)methyl)(methyl)amino)phenyl)-N4,N4-dimethylbenzene-1,4-disulfonamide]: 8980 nM; `CN(CC1CCC(C)(C)OC1)c1ccccc1NS(=O)(=O)c1ccc(S(=O)(=O)N(C)C)cc1` (stereo not shown) [Compound 32, N1-(2-(((6,6-dimethyltetrahydro-2H-pyran-3-yl)methyl)(methyl)amino)phenyl)-N4,N4-dimethylbenzene-1,4-disulfonamide]: 810 nM.
With `COCCCCN(C)c1ccccc1NS(=O)(=O)c1ccc(S(=O)(=O)N(C)C)cc1` [Compound 33, N1-(2-((4-methoxybutyl)(methyl)amino)phenyl)-N4,N4-dimethylbenzene-1,4-disulfonamide] the figure was 2740 nM; with `COCCCN(C)c1ccccc1NS(=O)(=O)c1ccc(S(=O)(=O)N(C)C)cc1` [Compound 34, N1-(2-((3-methoxypropyl)(methyl)amino)phenyl)-N4,N4-dimethylbenzene-1,4-disulfonamide], 3200 nM.
Turning to `Cc1ccc(NS(=O)(=O)c2ccc(S(=O)(=O)N(C)C)cc2)c(N(C)C2CCCCC2)c1` [Compound 35, N1-(2-(cyclohexyl(methyl)amino)-4-methylphenyl)-N4,N4-dimethylbenzene-1,4-disulfonamide], the EC50 stood at 330 nM.
With `Cc1cccc(N(C)C2CCCCC2)c1NS(=O)(=O)c1ccc(S(=O)(=O)N(C)C)cc1` [Compound 36, N1-(2-(cyclohexyl(methyl)amino)-6-methylphenyl)-N4,N4-dimethylbenzene-1,4-disulfonamide] the figure was 2180 nM.
Next, `CN(c1ccccc1NS(=O)(=O)c1ccc(S(=O)(=O)N(C)C)cc1)C1CCC1` [Compound 37, N1-(2-(cyclobutyl(methyl)amino)phenyl)-N4,N4-dimethylbenzene-1,4-disulfonamide]: 750 nM; `CN(c1c(Cl)cccc1NS(=O)(=O)c1ccc(S(=O)(=O)N(C)C)cc1)C1CCCCC1` [Compound 38, N1-(3-chloro-2-(cyclohexyl(methyl)amino)phenyl)-N4,N4-dimethylbenzene-1,4-disulfonamide]: 240 nM; `COCC1(C)CCC(CN(C)c2ccccc2NS(=O)(=O)c2ccc(S(=O)(=O)N(C)C)cc2)CC1` (stereo not shown) [Compound 39, N1-(2-(((4-(methoxymethyl)-4-methylcyclohexyl)methyl)(methyl)amino)phenyl)-N4,N4-dimethylbenzene-1,4-disulfonamide]: 420 nM.
In the case of `CN(c1ccccc1NS(=O)(=O)c1ccc(S(=O)(=O)N(C)C)cc1)C1CC(F)(F)C1` [Compound 40, N1-(2-((3,3-difluorocyclobutyl) (methyl)amino)phenyl)-N4,N4-dimethylbenzene-1,4-disulfonamide], the EC50 stood at 410 nM.
Next, `CN(c1ccccc1NS(=O)(=O)c1ccc(S(=O)(=O)N(C)C)cc1)C1CCC(F)(F)CC1` [Compound 41, N1-(2-((4,4-difluorocyclohexyl) (methyl)amino)phenyl)-N4,N4-dimethylbenzene-1,4-disulfonamide]: 270 nM; `COCC1(C)CCC(N(C)c2ccccc2NS(=O)(=O)c2ccc(S(=O)(=O)N(C)C)cc2)CC1` (stereo not shown) [Compound 42, N1-(2-((4-(methoxymethyl)-4-methylcyclohexyl)(methyl)amino)phenyl)-N4,N4-dimethylbenzene-1,4-disulfonamide]: 820 nM.
As to `CN(Cc1ccc(F)cn1)c1ccccc1NS(=O)(=O)c1ccc(S(=O)(=O)N(C)C)cc1` [Compound 43, N1-(2-(((5-fluoropyridin-2-yl)methyl)(methyl)amino)phenyl)-N4,N4-dimethylbenzene-1,4-disulfonamide], the EC50 was determined as 880 nM.
With `CCn1cnc(CN(C)c2ccccc2NS(=O)(=O)c2ccc(S(=O)(=O)N(C)C)cc2)c1` [Compound 44, N1-(2-(((1-ethyl-1H-imidazol-4-yl)methyl)(methyl)amino)phenyl)-N4,N4-dimethylbenzene-1,4-disulfonamide] the figure was above 10000 nM; with `CN(Cc1cscn1)c1ccccc1NS(=O)(=O)c1ccc(S(=O)(=O)N(C)C)cc1` [Compound 45, N1,N1-dimethyl-N4-(2-(methyl(thiazol-4-ylmethyl)amino)phenyl)benzene-1,4-disulfonamide], 2060 nM.
Next, `CN(Cc1ccccn1)c1ccccc1NS(=O)(=O)c1ccc(S(=O)(=O)N(C)C)cc1` [Compound 46, N1,N1-dimethyl-N4-(2-(methyl(pyridin-2-ylmethyl)amino)phenyl)benzene-1,4-disulfonamide]: 2560 nM.
